The values below are quoted from earlier work in patent publication US20260275282A1, “CELLS BEING HIGHLY ENRICHED IN SASP FACTORS, AND COMPOSITION COMPRISING SAID CELLS” (EVOMEDIS GMBH, priority 2022, published 2026).

pIC50: −log10 of the molar value. Peptide text beside a SMILES is read from it.

In one data set the test system is autophagy. As to conditions: BH3 domain mimetics; read-out: Concentration (IC50).
On to `CN(C)CC[C@H](CSc1ccccc1)Nc1ccc(S(=O)(=O)NC(=O)c2ccc(N3CCN(Cc4ccccc4-c4ccc(Cl)cc4)CC3)cc2)cc1[N+](=O)[O-]` [ABT-737], for which the pIC50 was 5.00 to 5.30.

The test system of a further data set is microtubules assembly. To be noted: half of the maximal concentration necessary to inhibit the microtubules assembly.
As for `CC[C@]1(O)C[C@@H]2CN(CCc3c([nH]c4ccccc34)[C@@](C(=O)OC)(c3cc4c(cc3OC)N(C)[C@H]3[C@@](O)(C(N)=O)[C@H](O)[C@]5(CC)C=CCN6CC[C@]43[C@@H]65)C2)C1` [Vindesine], the pIC50 was 9.10.
For the molecule `CC[C@]1(O)C[C@H]2CN(CCc3c([nH]c4ccccc34)[C@@](C(=O)OC)(c3cc4c(cc3OC)N(C=O)[C@H]3[C@@](O)(C(=O)OC)[C@H](OC(C)=O)[C@]5(CC)C=CCN6CC[C@]43[C@@H]65)C2)C1` [Vincristine], the pIC50 is 9.10.
For the molecule `CC[C@]12C=CCN3CC[C@@]4(c5cc([C@@]6(C(=O)OC)C[C@@H]7C[C@@H](C(C)(F)F)CN(Cc8c6[nH]c6ccccc86)C7)c(OC)cc5N(C)[C@H]4[C@@](O)(C(=O)OC)[C@@H]1OC(C)=O)[C@@H]32` [Vinflunine], the pIC50 is 9.10.
Turning to `CCC1=C[C@@H]2CN(C1)Cc1c([nH]c3ccccc13)[C@@](C(=O)OC)(c1cc3c(cc1OC)N(C)[C@H]1[C@@](O)(C(=O)OC)[C@H](OC(C)=O)[C@]4(CC)C=CCN5CC[C@]31[C@@H]54)C2` [Vinorelbine], the pIC50 was 9.10.
For the molecule `COC(=O)Nc1nc2ccc(C(=O)c3cccs3)cc2[nH]1` [Nocodazole], the pIC50 was 9.10.
Take `CC(=O)O[C@H]1C(=O)[C@@]2(C)[C@H]([C@H](OC(=O)c3ccccc3)[C@]3(O)C[C@H](OC(=O)[C@H](O)[C@@H](NC(=O)c4ccccc4)c4ccccc4)C(C)=C1C3(C)C)[C@]1(OC(C)=O)CO[C@@H]1C[C@@H]2O` [Paclitaxel (Taxol), Paclitaxel]: the pIC50 is 8.10.
With `CC[C@]1(O)C[C@@H]2CN(CCc3c([nH]c4ccccc34)[C@@](C(=O)OC)(c3cc4c(cc3OC)N(C)[C@H]3[C@@](O)(C(=O)OC)[C@H](OC(C)=O)[C@]5(CC)C=CCN6CC[C@]43[C@@H]65)C2)C1` [Vinblastine], the pIC50 is 9.10.
For the molecule `C/C1=C/C[C@@H](/C(C)=C/c2csc(C)n2)OC(=O)C[C@H](O)C(C)(C)C(=O)[C@H](C)[C@@H](O)[C@@H](C)CCC1` [Desoxyepothilone B], the pIC50 was 7.89.

A further data set relates to kinesin. As to conditions: Kinesin inhibitors: Group V; read-out: Concentration (IC50).
Regarding `Cc1ccc(C(=O)N(CCCN)[C@@H](c2nc3cc(Cl)ccc3c(=O)n2Cc2ccccc2)C(C)C)cc1` [Ispinesib (SB715992), Ispinesib], the pIC50 was 4.52 to 5.00.

Another data set deals with protein secretion (SASP factor secretion). As to conditions: 1 mM extracellular Ca2 - calcium dependent.
`CCCC[C@@H](C=O)NC(=O)[C@H](CC(C)C)NC(=O)OCc1ccccc1` [Calpeptin]: the Concentration was 80 μM (1 mM.

Staying with this data set, now noted: + 2-5 nM Vinblastine; actin depolymerizer with microtubule targeting-agent.
For Methyl-β-cyclodextrin, the “Concentration in combination with Vinblastine” value is listed as 1 mM + 2-5 nM.

Still in this data set, the particulars now being: concentration range that results in significant reduction, preferably inhibition, of SASP factor secretion.
As to `CC(Oc1ccc(O)cc1)(P(=O)(O)O)P(=O)(O)O` [L-690,330], the Concentration is 100 µM.
Consider `CC(=O)N[C@@H](CC(C)C)C(=O)N[C@@H](CC(C)C)C(=O)N[C@H](C=O)CCCNC(=N)N` [Leupeptin], for which the Concentration is 0.08 to 0.096 µM.
Consider `CC[C@@]1([C@@H]2O[C@@H]([C@H]3O[C@@](O)(CO)[C@H](C)C[C@@H]3C)C[C@@H]2C)CC[C@H]([C@]2(C)CC[C@]3(C[C@H](O)[C@@H](C)[C@@H]([C@@H](C)[C@@H](OC)[C@H](C)C(=O)O)O3)O2)O1` [Monensin], for which the Concentration was 10 µM.
For `Oc1ccc(C=Cc2cc(O)cc(O)c2)cc1` [Resveratrol], the Concentration is 12.5 to 50 µM.
With `CN[C@H]1CC[C@@H](c2ccc(Cl)c(Cl)c2)c2ccccc21` [Sertraline], the Concentration is 10 µM.
Regarding `Fc1ccc([C@@H]2CCNC[C@H]2COc2ccc3c(c2)OCO3)cc1` [Paroxetine], the Concentration is 10 to 20 µM.
Take `C1CCC(C(CC2CCCCN2)C2CCCCC2)CC1` (centres unmarked) [Perhexiline]: the Concentration was 10 µM.
For `COc1cc2c(c(OC)c1OC)-c1ccc(OC)c(=O)cc1[C@@H](NC(C)=O)CC2` [Colchicine], the Concentration is 2 to 5 µM.
With `CN(C)CCCN1c2ccccc2CCc2ccccc21` [Imipramine], the Concentration is 1 µM.
Take `CCCC[C@@H](C)/C=C(C)/C=C(\C)C(=O)NC1=C[C@@](O)(/C=C/C=C/C=C/C(=O)NC2=C(O)CCC2=O)[C@@H]2O[C@@H]2C1=O` [Manumycin A]: the Concentration was 1 µM.
On to `O=CC[C@@H](O)[C@H](O)[C@H](O)CO` [2-Deoxyglucose], for which the Concentration is 50000 µM.
`C[C@@H]1CN2CCC[C@H]3CCCCCC[C@H]4CCN5CCC[C@@](O)(CCCCCC[C@@H]1O[C@H]32)[C@H]5O4` [Xestospongin B]: the Concentration is 0.08 to 10 µM.
For the molecule `CNC(=O)c1cc(Oc2ccc(NC(=O)Nc3ccc(Cl)c(C(F)(F)F)c3)cc2)ccn1` [Sorafenib], the Concentration was 5 to 10 µM.
Regarding Cyclclosporine A, the Concentration was 10 to 40 µM.
Consider `NC(=O)N1CCC(CC(=O)N2CCC([C@H]3c4ncc(Br)cc4CCc4cc(Cl)cc(Br)c43)CC2)CC1` [Lonafarnib], for which the Concentration is 5 µM.
In the case of `O=C(CCCN1CCC2(CC1)C(=O)NCN2c1ccccc1)c1ccc(F)cc1` [Spiperone], the Concentration was 10 to 20 µM.
As to `CSCC[C@@H](C=O)NC(=O)[C@H](CC(C)C)NC(=O)[C@H](CC(C)C)NC(C)=O` [Calpain inhibitor II, N-acetyl-leucyl-leucyl-methioninal] (Ac-Leu-Leu-Met-aldehyde), the Concentration is 10 µM.
Consider `CCCCc1ccc2[nH]c(NC(=O)OC)nc2c1` [Parbendazole], for which the Concentration is 10 µM.
Turning to `COc1ccc(CCN2CCC(Nc3nc4ccccc4n3Cc3ccc(F)cc3)CC2)cc1` [Astemizole], the Concentration was 20 to 40 µM.
For the molecule `C[C@@H](N)[C@H]1CC[C@H](C(=O)Nc2ccncc2)CC1` [Y27632], the Concentration is 5 µM.
On to `CC(NCCC(c1ccccc1)c1ccccc1)c1ccccc1` (centres unmarked) [Fendiline], for which the Concentration was 1 to 100 µM.
Turning to `CNCCC(Oc1ccc(C(F)(F)F)cc1)c1ccccc1` (centres unmarked) [Fluoxetine], the Concentration was 30 to 100 µM.
Take `CN(C)C(=N)N=C(N)N` [Metformin]: the Concentration is 5 µM.
Consider `Cn1cnc(N)c2ncnc1-2` [3-Methyladenine], for which the Concentration was 5000 µM.

For another data set, the system named is PI3K-mTOR. To be noted: Dual inhibitor of PI3K-mTOR; read-out: Concentration (IC50).
Consider `Oc1cccc(-c2nc(N3CCOCC3)c3oc4ncccc4c3n2)c1` [PI-103], for which the pIC50 was 6.82 to 8.10.

Another data set deals with proteasome. To be noted: Inhibitor of proteasome; read-out: Concentration (IC50).
As for `CC(C)C[C@H](NC(=O)[C@H](Cc1ccccc1)NC(=O)c1cnccn1)B(O)O` [Bortezomib], the pIC50 was […].
